Experimental data from US11324747B2, “Methods and compositions for managing neuroinflammation and neurodegeneration” (CENTRE FOR CELLULAR AND MOLECULAR PLATFORMS, priority 2016, dated 2022).
Entries after “also recorded” stand apart in the source; their conditions may differ. Like-named read-outs stand apart in the source and are kept apart here.

Tests used:
N27 cells [1] = details: 30 hours; for neuroprotective effect on N27 cell survival: Example 2.1; for neuroprotective effect on N27 cell survival / neuronal survival as compared to LPS alone / N27 cell survival (protective effect) vs LPS alone / protective effect in N27 cells: LPS 1 μg/ml; for neuronal survival as compared to LPS alone: Example 2.2; for effect of compound alone on the cells, survival, nitrite release or morphology: compound 1 μM without LPS; for protective effect in N27 cells: Example 5
Method: The survival of the N27 cells was then measured using MTS Assay.
N27 (Rat Dopaminergic cells) and BV2 (Mice Glial Cells) cells were co-cultured in Corning HTS Transwell Plates in RPMI Complete media supplemented with 10% HI-FBS, N27 in the lower well of the 24 well plates and BV2 in the 0.4 μm porous permeable support inserted on top of the 24 well for 24 hours at 37° C., 5% CO2. BV2 cells were treated with 1 μg/ml LPS in the presence and absence of 10 μM of CCND-01, CCND-02, CCND-03 and CCND-04, and 10 mM of NAC for 30 hours at 37° C., 5% CO2. The survival of N27 cells was then measured by performing MTS Assay and taking readings at 490 nm after 30 mins of incubation.
MTS assay was performed to determine the percentage N27 survival.

BV2 cells [2] = test: LPS induced nitrite release in BV2 cells (Griess assay); type: cell-based, mice; details: Example 1; LPS 1 μg/ml, 48 hours, vs LPS alone
Method: The immortalized rat mesencephalic dopaminergic cells (N27 cells) were grown in RPMI 1640 medium containing 10% Fetal Bovine Serum (FBS), 2 mM L-glutamine, 50 U Penicillin and 50 μg/ml Streptomycin [22]. Mice microglial cells (BV2 cells) were grown in RPMI 1640 medium containing 10% Heat Inactivated Fetal Bovine Serum (HI-FBS). Cells were maintained in a humidified atmosphere of 5% CO2 at 37° C. until they were 60-70% confluent.
BV2 (Mice Glial Cells) cells were treated with LPS at a concentration of 1 μg/ml in the presence or absence of test compounds PD180970 or AGK-2 at a concentrating ranging from 0.1 nM-[…] and incubated for 48 hours at 37° C. at 5% CO2. Griess assay was used to measure nitrite released in order to investigate the anti-inflammatory potential of the compounds. Untreated BV2 cells was used as blank, 0.1% DMSO in media was used as vehicle. LPS (1 μg/ml) was used as control for nitrite release.

IL-6 = test: LPS induced IL-6 secretion by BV2 in N27-BV2 co-culture (Luminex multiplexing assay); type: cell-based, mice; details: Example 4.3; LPS 1 μg/ml, compound 1 μM, 30 hours
Method: (§1) Luminex multiplexing assay was performed to determine the concentration of IL-6 and MCP-1 released. LPS (1 μg/ml) was used as control for IL-6 release or MCP-1 release.

HEK-Blue™ TLR2 cells = test: nF-κB induced SEAP activity in HEK-Blue TLR2 cells; type: cell-based; details: Pam3CSK4 10 ng/ml, compound 1 nM-100 μM, 12 hours
Method: (§2) Hek-Blue TLR-2, TLR-3 and TLR-4 Cells were obtained from InvivoGen (San Diego, Calif.). Culture treatment and assay was performed as per the manufacturers recommended protocol. Cells were treated and incubated for 12 hours, followed by collection of OD values at 620 nm.
(§3) HEK-Blue™ TLR4 cells were treated with LPS and HEK-Blue™ TLR2 were treated with Pam3CSK4 at a concentration of 10 ng/ml for 12 hours in the presence or absence of compounds (PD180970 or AGK-2) at a range of 1 nM-100 μM, and assayed for SEAP activity. LPS ([…]) was used as control for SEAP activity. nF-κB induced SEAP activity was quantified using HEK-Blue™ Detection at 620 nm.

N27 cells [3] = test: MPP+ induced neurotoxicity in N27 cells (MTS assay); type: cell-based, rat; details: 300 μM MPP+, compound 0.1 nM-10 μM, 24 hours
Method: Cells were co-treated with 300 μM MPP^+ in the presence and absence of compounds for 24 hours. Treatments were made in complete RPMI medium containing 2% FBS.
N27 cells were treated with 300 μM of MPP^+ in the presence and absence of compounds (PD180970 or AGK-2) in a concentration range of 0.1 nM-10 μM and incubated for 24 hours. MPP^+ (300 μM) treated N27 cells was used as control. MTS assay was used to check the cell viability in order to investigate the neuroprotective potential of the compounds. None of the compounds could rescue MPP^+ treated dopaminergic N27 cells.

N27 cells [4] = test: Hydrogen peroxide induced neurotoxicity in N27 cells (MTS assay); type: cell-based, rat; details: 75 μM hydrogen peroxide, compound 0.1 nM-10 μM, 8 hours
Method: Cells were co-treated with 75 μM H2O2 in the presence and absence of compounds for 8 hours. Treatments were made in complete RPMI medium containing 2% FBS.
N27 cells were treated with 75 μM hydrogen peroxide in the presence and absence of compounds PD180970 or AGK2 in a concentration range of 0.1 nM-10 μM for 8 hours in 96 well plates. MTS assay was used to check the cell viability in order to investigate the neuroprotective potential of the compounds. Cells with untreated media was used as blank, and cells with media containing 0.1% DMSO (vehicle or solvent for the compounds) was used as vehicle. Hydrogen peroxide (75 μM) treated N27 cells was used as control for.

HEK-Blue™ TLR4 cells = test: nF-κB induced SEAP activity in HEK-Blue TLR4 cells; type: cell-based; details: LPS 10 ng/ml, compound 1 nM-100 μM, 12 hours
Method: as §2, §3

MCP-1 = test: LPS induced MCP-1 secretion by BV2 in N27-BV2 co-culture (Luminex multiplexing assay); type: cell-based, mice; details: Example 4.3; LPS 1 μg/ml, compound 1 μM, 30 hours
Method: as §1

BV2 cells [5] = test: LPS induced nitrite release by BV2 in N27-BV2 co-culture (Griess assay); type: cell-based, mice; details: LPS 1 μg/ml, 30 hours
N27 cells [6] = test: Toxicity to N27 cells induced by conditioned media from LPS activated BV2 cells (MTS assay); type: cell-based, rat; details: Example 3, FIG. 3, LPS 1 μg/ml, 30 hours
ERα = target: T1, ERα (Homo sapiens, UniProt P03372); details: at concentrations below 10 μM; cited from earlier work
T1 sequence (P03372 1-595): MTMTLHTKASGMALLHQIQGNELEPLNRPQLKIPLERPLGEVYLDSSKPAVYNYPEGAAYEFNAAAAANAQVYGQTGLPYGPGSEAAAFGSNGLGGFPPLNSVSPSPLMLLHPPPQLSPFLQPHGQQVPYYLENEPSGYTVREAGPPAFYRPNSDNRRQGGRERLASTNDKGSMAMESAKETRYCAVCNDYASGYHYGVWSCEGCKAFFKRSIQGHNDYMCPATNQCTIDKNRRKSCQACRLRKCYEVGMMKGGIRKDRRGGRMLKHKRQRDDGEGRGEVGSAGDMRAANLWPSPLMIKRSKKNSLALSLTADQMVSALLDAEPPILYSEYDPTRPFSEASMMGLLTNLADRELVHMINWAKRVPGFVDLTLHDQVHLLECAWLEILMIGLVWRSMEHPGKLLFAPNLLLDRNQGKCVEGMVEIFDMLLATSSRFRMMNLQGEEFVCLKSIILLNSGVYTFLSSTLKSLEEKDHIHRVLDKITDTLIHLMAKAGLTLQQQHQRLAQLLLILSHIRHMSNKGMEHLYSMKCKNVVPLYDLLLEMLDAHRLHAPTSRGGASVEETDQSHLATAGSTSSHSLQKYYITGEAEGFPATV

ERRγ = target: T2, ERRγ (Homo sapiens, UniProt P62508); details: at concentrations below 10 μM; cited from earlier work
T2 sequence (P62508 1-458): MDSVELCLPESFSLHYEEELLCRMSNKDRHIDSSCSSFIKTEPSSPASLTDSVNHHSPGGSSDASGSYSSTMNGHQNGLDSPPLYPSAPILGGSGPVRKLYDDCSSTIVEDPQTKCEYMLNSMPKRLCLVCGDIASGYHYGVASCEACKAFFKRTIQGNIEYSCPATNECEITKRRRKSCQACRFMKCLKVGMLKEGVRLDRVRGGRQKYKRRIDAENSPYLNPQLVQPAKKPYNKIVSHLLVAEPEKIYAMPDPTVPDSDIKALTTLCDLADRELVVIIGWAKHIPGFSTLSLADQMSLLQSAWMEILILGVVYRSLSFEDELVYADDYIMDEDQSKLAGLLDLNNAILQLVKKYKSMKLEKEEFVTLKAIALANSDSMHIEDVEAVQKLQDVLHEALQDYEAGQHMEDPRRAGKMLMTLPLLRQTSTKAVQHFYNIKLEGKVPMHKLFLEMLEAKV

Row | SMILES | neuroprotective effect on N27 cell survival (N27 cells [1]; compound 10 μM) | neuronal survival as compared to LPS alone (N27 cells [1]; compound 1 μM) | N27 cell survival (protective effect) vs LPS alone (N27 cells [1]; Example 4, compound 1 μM) | effect of compound alone on the cells, survival, nitrite release or morphology (N27 cells [1]; Example 4) | protective effect in N27 cells (N27 cells [1]; compound 10 μM) | levels of nitrite released by LPS treated BV2 cells (BV2 cells [2]) | level of IL-6 released by LPS induced BV2 cells (IL-6) | nF-κB induced SEAP activity (HEK-Blue™ TLR2 cells) | neuroprotective effect on MPP+ induced toxicity (N27 cells [3]) | neuroprotective effect on H2O2 induced toxicity (N27 cells [4]) | nF-κB induced SEAP activity (HEK-Blue™ TLR4 cells) | level of MCP-1 released by LPS induced BV2 cells (MCP-1) | level of nitrite released by LPS induced BV2 cells (BV2 cells [5]; Example 2.2, compound 1 μM) | level of nitrite released by LPS induced BV2 cells (BV2 cells [5]; Example 4, compound 1 μM) | neuroprotective effect in N27 cells (N27 cells [6]; compound 10 μM) | further results
1 | N#C/C(=C\c1ccc(-c2cc(Cl)ccc2Cl)o1)C(=O)Nc1cccc2ncccc12 [AGK-2] | significant neuroprotective effect | significant increase in neuronal survival | significant protective effect; also recorded: significant increase in neuronal survival | no effect | significant protective effect | significant reduction in levels of nitrite | significant reduction in level of IL-6 | not in HEK-Blue™ TLR2 cells | no significant neuroprotective effect | no significant neuroprotective effect | significant inhibitory effect | significant reduction in levels of IL-6 and MCP-1 | significant reduction in level of nitrite | significant decrease in nitrite level; also recorded: significant reduction in level of nitrite | significant neuroprotective effect | 
2 | COc1cc(/C=C(\C#N)C(=O)Nc2nnc(C(F)(F)F)s2)ccc1OCc1ccc(C(F)(F)F)cc1C(F)(F)F [CCND-04] |  |  |  |  |  |  |  |  |  |  |  |  |  |  |  | antagonist activity on ERα (ERα): no significant antagonist activity; antagonist activity on ERRγ (ERRγ): no significant antagonist activity
3 | Cc1ccc(NC(=O)c2ccc(CN3CCN(C)CC3)cc2)cc1Nc1nccc(-c2cccnc2)n1 [Imatinib] |  |  |  |  | significant protective effect |  |  |  |  |  |  |  |  |  |  | 
4 | CC(=O)N[C@@H](CS)C(=O)O [NAC, N-acetylcysteine] |  |  |  |  | neuroprotective role |  |  |  |  |  |  |  |  |  |  | neuroprotective effect on N27 cell survival (N27 cells [1]; NAC 10 mM): inhibit neuronal cell death; neuronal survival as compared to LPS alone (N27 cells [1]; NAC 10 mM): significant increase in neuronal survival; N27 cell survival (protective effect) vs LPS alone (N27 cells [1]; Example 4.1, NAC 10 μM): significant protective effect; level of nitrite released by LPS induced BV2 cells (BV2 cells [5]; Example 2.2, NAC 10 mM): significant reduction in level of nitrite; neuroprotective effect in N27 cells (N27 cells [6]; NAC 1 mM): significant neuroprotective effect
5 | Cc1cn(-c2cc(NC(=O)c3ccc(C)c(Nc4nccc(-c5cccnc5)n4)c3)cc(C(F)(F)F)c2)cn1 [Nilotinib] |  |  |  |  | significant protective effect |  |  |  |  |  |  |  |  |  |  | 
6 | Cc1cc(Nc2ncc3cc(-c4c(Cl)cccc4Cl)c(=O)n(C)c3n2)ccc1F [PD180970] | significant neuroprotective effect | significant increase in neuronal survival | significant protective effect; also recorded: significant increase in neuronal survival | no effect | significant protective effect | significant reduction in levels of nitrite | significant reduction in level of IL-6 | not in HEK-Blue™ TLR2 cells | no significant neuroprotective effect | no significant neuroprotective effect | significant inhibitory effect | significant reduction in levels of IL-6 and MCP-1 | significant reduction in level of nitrite | significant decrease in nitrite level; also recorded: significant reduction in level of nitrite | significant neuroprotective effect | 
